The subject of test [1] is PC-3. Briefly: Cytotoxicity against human PC3 cells after 72 hrs by MTT assay. The test is classed as functional, cell-based. As to conditions: PC-3, 72 h.
Test [2] deals with A-431. Kind of test: Cytotoxicity against human A431 cells after 72 hrs by MTT assay. Format: functional, cell-based. Particulars: A-431, 72 h.
Test [3] concerns Bel-7402. Briefly: Cell cycle arrest in human Bel7402 cells assessed as accumulation at G2/M phase at 10 uM relative to control. Format: functional, cell-based.
In test [4] the test system is Bel-7402. Briefly: Cell cycle arrest in human Bel7402 cells assessed as accumulation at G2/M phase at 1 uM relative to control. The test is classed as functional, cell-based.
Test [5] deals with Histone deacetylase 3 (Homo sapiens, UniProt O15379). Briefly: Inhibition of human recombinant HDAC3 expressed in High5 insect cells using Ac-Lys-Tyr-Lys(-acetyl)-AMC as substrate after 24 hrs by fluorescence assay.
The target of test [6] is T1, Protein deacetylase HDAC6 (Homo sapiens, UniProt Q9UBN7).
T1 sequence (Q9UBN7 whole entry): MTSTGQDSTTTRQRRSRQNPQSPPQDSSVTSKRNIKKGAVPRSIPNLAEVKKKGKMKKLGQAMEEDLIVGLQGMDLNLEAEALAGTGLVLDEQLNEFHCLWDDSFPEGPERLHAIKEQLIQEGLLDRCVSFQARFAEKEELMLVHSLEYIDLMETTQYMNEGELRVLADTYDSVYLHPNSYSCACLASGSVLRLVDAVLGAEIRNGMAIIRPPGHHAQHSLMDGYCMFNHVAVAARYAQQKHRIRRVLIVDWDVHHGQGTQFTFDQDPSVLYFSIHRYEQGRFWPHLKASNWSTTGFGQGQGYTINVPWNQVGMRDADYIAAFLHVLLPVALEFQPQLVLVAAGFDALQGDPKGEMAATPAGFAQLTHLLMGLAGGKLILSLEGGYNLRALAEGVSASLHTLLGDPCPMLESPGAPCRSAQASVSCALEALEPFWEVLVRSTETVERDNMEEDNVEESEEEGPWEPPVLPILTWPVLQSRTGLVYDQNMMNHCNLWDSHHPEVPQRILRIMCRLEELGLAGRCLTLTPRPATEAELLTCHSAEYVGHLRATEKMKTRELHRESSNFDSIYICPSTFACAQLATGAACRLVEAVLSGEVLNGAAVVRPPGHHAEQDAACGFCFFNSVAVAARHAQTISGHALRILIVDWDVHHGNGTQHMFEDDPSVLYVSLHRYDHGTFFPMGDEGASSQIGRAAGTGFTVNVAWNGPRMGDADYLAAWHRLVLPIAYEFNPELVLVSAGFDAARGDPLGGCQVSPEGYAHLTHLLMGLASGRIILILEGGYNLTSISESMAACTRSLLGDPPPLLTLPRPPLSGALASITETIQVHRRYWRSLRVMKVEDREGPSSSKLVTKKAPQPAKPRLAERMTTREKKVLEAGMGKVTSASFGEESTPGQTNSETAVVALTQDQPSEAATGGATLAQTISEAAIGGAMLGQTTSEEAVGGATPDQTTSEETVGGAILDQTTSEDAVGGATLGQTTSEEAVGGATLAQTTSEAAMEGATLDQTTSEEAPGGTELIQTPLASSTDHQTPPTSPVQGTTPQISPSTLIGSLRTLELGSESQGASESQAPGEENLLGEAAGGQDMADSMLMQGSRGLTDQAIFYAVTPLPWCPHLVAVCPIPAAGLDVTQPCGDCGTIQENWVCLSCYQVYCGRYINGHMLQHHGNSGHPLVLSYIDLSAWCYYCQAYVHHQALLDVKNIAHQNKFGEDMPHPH
Kind of test: Inhibition of human recombinant HDAC6 expressed in High5 insect cells using Boc-Lys (-acetyl)-AM) as substrate after 24 hrs by fluorescence assay.

In test [7] the target is Histone deacetylase 1 (Homo sapiens, UniProt Q13547). Kind of test: Inhibition of human recombinant HDAC1 expressed in High5 insect cells using Ac-Lys-Tyr-Lys(-acetyl)-AMC as substrate after 24 hrs by fluorescence assay.
For test [8], the system named is A549. Kind of test: Cytotoxicity against human A549 cells after 72 hrs by MTT assay. Format: functional, cell-based. Particulars: A549, 72 h.
Test [9] deals with MCF7. Kind of test: Cytotoxicity against human MCF7 cells after 72 hrs by MTT assay. The test is classed as functional, cell-based. As to conditions: MCF7, 72 h.
In test [10] the test system is HCT-116. Kind of test: Cytotoxicity against human HCT116 cells after 72 hrs by MTT assay. Format: functional, cell-based. Particulars: HCT-116, 72 h.

Calls of active or inactive are those of the source. The calls are words filed in the database; no cut-off is given here.

Chain of Histone deacetylase 3 (O15379 whole entry): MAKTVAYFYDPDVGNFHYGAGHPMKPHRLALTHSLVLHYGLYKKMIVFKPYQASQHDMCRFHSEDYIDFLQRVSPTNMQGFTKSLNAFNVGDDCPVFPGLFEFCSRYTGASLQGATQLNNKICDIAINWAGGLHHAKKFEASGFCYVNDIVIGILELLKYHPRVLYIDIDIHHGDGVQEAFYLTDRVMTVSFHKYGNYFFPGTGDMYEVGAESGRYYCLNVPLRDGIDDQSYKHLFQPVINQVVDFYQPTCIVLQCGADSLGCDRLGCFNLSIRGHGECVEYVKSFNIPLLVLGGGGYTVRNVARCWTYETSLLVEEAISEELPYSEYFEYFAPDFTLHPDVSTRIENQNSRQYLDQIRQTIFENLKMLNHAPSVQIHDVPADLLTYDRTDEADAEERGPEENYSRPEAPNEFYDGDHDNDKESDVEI
Chain of Histone deacetylase 1 (Q13547 whole entry): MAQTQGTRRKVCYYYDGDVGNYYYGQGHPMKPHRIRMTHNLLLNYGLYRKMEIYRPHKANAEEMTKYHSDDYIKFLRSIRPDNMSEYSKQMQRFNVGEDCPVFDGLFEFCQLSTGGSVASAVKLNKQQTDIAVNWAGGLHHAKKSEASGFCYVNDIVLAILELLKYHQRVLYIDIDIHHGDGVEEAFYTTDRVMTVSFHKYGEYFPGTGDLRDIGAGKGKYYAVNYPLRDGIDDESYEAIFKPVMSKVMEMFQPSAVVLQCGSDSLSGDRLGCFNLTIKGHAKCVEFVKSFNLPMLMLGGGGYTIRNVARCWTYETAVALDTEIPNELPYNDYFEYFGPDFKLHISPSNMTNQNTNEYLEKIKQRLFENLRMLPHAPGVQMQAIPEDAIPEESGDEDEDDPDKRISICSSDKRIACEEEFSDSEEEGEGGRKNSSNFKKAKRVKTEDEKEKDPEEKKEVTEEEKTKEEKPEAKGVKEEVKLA

`COc1cc2c(c(OC)c1OC)-c1ccc(OC)c(=O)cc1[C@@H](NC(=O)CCCCC(=O)NO)CC2`: the IC50 in test [1] was found to be 5400 nM; in test [2], 1030 nM; in [5] it was 830 nM; in test [6], 440 nM; in [7] it was 720 nM; in test [8] it was 4930 nM. Also, the half-maximal inhibitory concentration (IC50) worked out at 928 nM in test [9] and 2080 nM in [10]. Moreover, the result in test [3] and in test [4] was Active.

Consider `COc1cc2c(c(OC)c1OC)-c1ccc(OC)c(=O)cc1[C@@H](NC(=O)CCCCCCC(=O)NO)CC2`, for which the IC50 in test [1] was determined as 3380 nM; in [2] it was 3430 nM; in test [6], 9830 nM; in test [8], 7260 nM; in test [9], 1380 nM; in test [10] it was 2600 nM. Moreover, the outcome in test [3] and in [4] was Active.

Take `COc1cc2c(c(OC)c1OC)-c1ccc(OC)c(=O)cc1[C@@H](NC(=O)CCCCCC(=O)NO)CC2`: the IC50 in [1] came out at 2940 nM; in test [2], 1230 nM; in test [5], 1030 nM; in [6] it was 760 nM; in [7], 1600 nM; in test [8] it was 7290 nM. The IC50 in [9] was 948 nM; in [10], 1380 nM. The result in test [3] and in [4] was Active.

For the compound `COc1cc2c(c(OC)c1OC)-c1ccc(OC)c(=O)cc1[C@@H](NC(=O)CCC(=O)NO)CC2`, the IC50 in [1] amounted to 813 nM; in test [2], 242 nM; in [5], 1360 nM; in test [6], 3430 nM; in [7] it was 1330 nM; in test [8], 4670 nM. Further, the values for the IC50 in [9] and in [10] were 825 nM and 903 nM, respectively. In addition, the outcome in test [3] and in test [4] was Active.

`COc1cc2c(c(OC)c1OC)-c1ccc(OC)c(=O)cc1[C@@H](NC(=O)CCCC(=O)NO)CC2`: the IC50 in [1] was 2340 nM; in test [2], 1830 nM; in [5], 8360 nM; in test [6] it was 8240 nM; in test [7] it was 9580 nM; in test [8] it was 7370 nM. Besides, the half-maximal inhibitory concentration (IC50) was determined as 876 nM in [9] and 2740 nM in test [10]. Besides, the result in test [3] and in test [4] was Active.

For `COc1cc2c(c(OC)c1OC)-c1ccc(OC)c(=O)cc1[C@@H](NC(C)=O)CC2` [COLCHICINE], the IC50 amounted to 74 nM in test [1]; 19 nM in test [2]; 23 nM in [8]; 17 nM in test [9]; 37 nM in test [10].

These data come from ChEMBL document CHEMBL2385041, “The discovery of colchicine-SAHA hybrids as a new class of antitumor agents” (Bioorg Med Chem, 2013).
